Here are results for 13 molecules from patent US11559536B2, “Compositions and methods for the treatment of inflammation in urological pathology” (Duke University, priority 2019, dated 2023).

The test system of series [1] is BOO. The experiment in a line: Sucrose preference assay after BOO. Type of series: in vivo, rat. Particulars: 12 weeks of BOO; glyburide pellet; fluoxetine ≈20 mg/kg/day in drinking water, last 4 weeks.
In series [2] the test system is BOO. The experiment in a line: Open field assay after BOO. The format is in vivo, rat. To be noted: 12 weeks of BOO; glyburide pellet; fluoxetine ≈20 mg/kg/day in drinking water, last 4 weeks.
In series [3] the test system is caspase-1 activation in urothelial cells. In words: Caspase-1 assay in isolated rat urothelial cells treated with stone DAMPs, with or without inhibitors. To be noted: for maximal response of caspase-1 activation: normalized to 1.25 mM ATP 1 h; for concentration sufficient to completely suppress caspase-1 activation in MSU-treated cells: 1.25 μg/mL MSU 24 h.
Method: Briefly, rats were sacrificed and the bladders removed and placed in sterile PBS. Bladders were then inverted over an 18-gauge blunt tip needle, inflated with PBS, and a purse string suture was used to tie off the bladder. The inflated bladder was then submerged in Collagenase P (1 mg/ml in complete media) and shaken for 1 hour at 37° C. […] Media was removed and replaced with fresh media (90 μL for agonist studies, 80 μL for inhibitor studies) just prior to the start of experimental treatments.
Using PBS (for CPPD) or complete media (for MSU), 1:2 serial dilutions were prepared. Wells were then treated with 10 μL of the appropriate dilution of stone DAMP for a final volume of 100 μL. After treatment, cells were incubated for another 24 hours at 37° C.
For inhibition response studies, the general ROS scavenger N-acetylcysteine was prepared to the stock concentration of 5 mM for MSU treatment and to 50 mM for CPPD treatment. Prior to treatment, the stock concentration of NAC was buffered to pH 7.2. […] Using complete media for NAC and PBS for Verapamil, 1:2 serial dilutions were prepared. Cells were treated with 10 μL of NAC or Verapamil and incubated at 37° C. for 1 or 4 hours, respectively. […] Plates were then incubated for an additional 24 hours at 37° C.
Briefly, media was removed and cells lysed in 50 μl lysis buffer (10 mM MgCl2 and 0.25% Igepal CA-630) for 5 minutes. An additional 50 μL of storage buffer (40 mM HEPES (pH 7.4), 20 mM NaCl, 2 mM EDTA and 20% glycerol) was added, and the plates frozen at −80° C. until use (>30 minutes). […] Plates were then incubated in the dark for 1 hour at 37° C. with mild shaking. Florescence was then measured (excitation 400 nm, emission 505 nm).
For series [4], the system named is caspase-1 (inflammasome activation) in urothelial cells. In words: Caspase-1 activity in isolated mouse urothelial cells treated with diabetic DAMPS in vitro. To be noted: DAMP 24 h (ATP 1 h).
Series [5] relates to BOO. The experiment in a line: Evans blue assay in hippocampus after BOO. The format is in vivo, rat. Here is the method: (§1) Sides were alternated thereafter.
Rats were weighed and then injected (i.v. 3 ml/kg) with 2% Evan's blue dye in sterile saline by an investigator blinded to the groups (Belayev et al. (1996) Brain Res 739: 88-96). After one hour, rats were euthanized and transcardially perfused with cold PBS to remove intravascular dye. The brain was isolated and the hippocampus dissected, weighed and placed into formamide (0.25 ml) overnight (56° C.). Absorbance (620 nm) was measured and compared to a standard curve to calculate pg Evans blue/μg tissue.

Series [6] relates to BOO. The experiment in a line: Bladder weight after bladder outlet obstruction (BOO). To be noted: 12 weeks of BOO; glyburide 50 mg 21-day slow release pellet.
Method: For most studies rats were assigned to 4 groups; 1) Control, 2) Sham, 3) BOO or 4) BOO+glyburide (Gly). […] For Sham and all BOO groups, animals were anesthetized [ketamine hydrochloride (90 mg/kg), xylazine (10 mg/kg); i.p.] and a 1 mm o.d. catheter (P50 tubing) inserted transurethrally. BOO was created by urethral ligation over a 1 mm catheter. A 5-0 silk suture was passed around the urethra and tied securely for BOO and loosely for Sham. The catheter was removed and the abdominal wall closed. For BOO+Gly, a subcutaneous pocket was made on the side of the neck and a single 50 mg, 21-day slow release pellet (Innovative Research of America, Sarasota, Fla.) inserted and the incision closed. A new pellet was placed (contralateral side) after 21 days. Sides were alternated thereafter.
Bladders from the various groups indicated in FIG. 18 were weighed when they were removed for the various endpoints in this experiment.
For series [7] the following is noted: cited from earlier work.
The subject of series [8] is BOO. In words: Density of activated microglia (IbA1/AIF1) in hippocampus after BOO. To be noted: 12 weeks of BOO; glyburide pellet. The format is in vivo, rat. Here is the method:
as §1
(§2) Brains were fixed (10% neutral buffered formalin; 48 h, rt) and grossly cut (coronally) to the hippocampus before being embedded in paraffin with the plane of the hippocampus on the block face. Citrate antigen retrieval was used prior to staining 10 μm coronal sections with anti-IbA1/AIF1 (1:500) (NBP2-19019; Novus Biologicals, Centennial, Colo.) or Anti-Ki67 (1:500) (ab15580; Abcam, Cambridge, Mass.) via standardard methodology. IbA1 was visualized via HRP development (Vectastain ABC Kit; Vector, Burlingame, Calif.), biotinylated secondary antibody provided). Ki-67 was visualized using a goat anti-rabbit secondary antibody conjugated to Alexa Fluor 488 (111-545-144; Jackson ImmunoResearch Labs, West Grove, Pa.). […]
(§3) A Zeiss Axio Imager 2 microscope (Zeiss, Oberkochen, Germany) running Zen software (Zeiss) using the tiling and stitching feature was used to scan one entire hemisphere. […] Slides were quantitated by a researcher blinded to the groups. For microglia, we demarcated 600,000-700,000 μm^2 of the fascia dentata, counted the number of black/brown spots with two or greater associated tendrils and calculated microglial density. For Ki-67^+ cells we demarcated the entire dentate gyrus, CA1, CA2 and CA3 regions, quantitated nuclei (DAPI^+) that were Ki-67^+ (green florescence) and calculated the density.

Series [9] deals with BOO. The experiment in a line: Density of Ki-67+ proliferating cells in hippocampus after BOO. Type of series: in vivo, rat. To be noted: 12 weeks of BOO; glyburide pellet. Here is the method:
as §1, §2, §3

For series [10] the following is noted: cited from earlier work. The source holds these as a separate data set.

As for `CNCCC(Oc1ccc(C(F)(F)F)cc1)c1ccccc1` (stereo not shown) [fluoxetine], the sucrose preference result in the series with BOO [1] is “restored sucrose preference back to levels not statistically different from control”. Moreover, the “open field: time exploring the middle of the field” value with BOO [2] is “restored the exploratory behavior of these rats back to levels not statistically different from control”.

By EC50 is commonly meant the concentration needed to bring the measured effect to its halfway point. For the molecule `O=P([O-])([O-])OP(=O)([O-])[O-].[Ca+2].[Ca+2]` [CPPD, calcium pyrophosphate], the “maximal response of caspase-1 activation” value in series [3] (24 h treatment) is “approximately 50 % of the ATP response”. Besides, the EC50 in series [3] (Rattus norvegicus, 24 h, read-out: EC50 of caspase-1 activation) came to 62.5 µg/mL.

For orientation: IC50 means the point on the concentration scale where inhibition reaches its midpoint. For `COc1ccc(CCN(C)CCCC(C#N)(c2ccc(OC)c(OC)c2)C(C)C)cc1OC` (stereo not shown) [Verapamil], the “concentration sufficient to completely suppress caspase-1 activation in MSU-treated cells” value in series [3] worked out at 150 µM. Also, the IC50 in [3] (Rattus norvegicus, read-out: IC50 of caspase-1 activation in CPPD-treated cells) is 100 µM.

Take `CCCCCCCCCCCCC/C=C/[C@@H](O)[C@H](CO)NC(=O)CCCCC` [C6-ceramide, N-hexanoyl-D-erythro-sphingosine]: in series [4], the “caspase-1 activity (inflammasome activation)” value (“caspase-1 activity” for short) is recorded as “activation of caspase-1”.

For `COc1ccc(Cl)cc1C(=O)NCCc1ccc(S(=O)(=O)NC(=O)NC2CCCCC2)cc1` [GLY, glyburide], the sucrose preference result in the series on BOO [1] is “restored”. In the series on BOO [5] (6 weeks of BOO, glyburide treatment), the “Evan's blue dye extravasation in the hippocampus” value is on record as “blocked”. Moreover, the “leakage of Evan's blue into the hippocampus” value with BOO [5] (12 weeks of BOO, glyburide pellet) is recorded as “reduced back to control levels”. For the same molecule, the “open field: time exploring the middle of the field” value with BOO [2] was “restored this behavior”. For the same molecule, in the series with BOO [6], the bladder weight entry is “suppresses this increase”. Moreover, the “crossing of the blood brain barrier” value in [7] (intact barrier) was “does not cross the blood brain barrier”. The “binding in the serum” value in series [7] (serum) is given as “mostly albumin-bound”. In addition, the “density of activated microglia in the hippocampus” value with BOO [8] is recorded as “reduced back to control levels”. Besides, in the series with BOO [9], the “concentration of proliferating cells (Ki-67+) in the hippocampus” value is reported as “blocked”.

Consider `Nc1ncnc2c1ncn2[C@@H]1O[C@H](COP(=O)(O)OP(=O)(O)OP(=O)(O)O)[C@@H](O)[C@H]1O` [ATP], for which the “caspase-1 activity” value in series [4] is “elicited a classic dose response”.

Turning to AGES, the “caspase-1 activity” value in series [4] is given as “activation of caspase-1”.

On to `O=C([O-])C(=O)[O-].[Ca+2]` [calcium oxalate], for which the “caspase-1 activation in urothelial cells” value in series [3] (24 h treatment) is given as “activates caspase-1 in urothelial cells in a dose-dependent manner”.

Take `CN(N=O)C(=O)N[C@H]1C(O)O[C@H](CO)[C@@H](O)[C@@H]1O` (mixture of isomers) [streptozotocin]: the “caspase-1 activity” value in series [4] is “directly activates the inflammasome”.

With `O=c1[nH]c(=O)c2[nH]c([O-])nc2[nH]1.[Na+]` [MSU, monosodium urate], the “EC50 of caspase-1 activation” value in [3] (24 h treatment of rat urothelial cells) came to 0.156 µg/mL. Further, the “maximal response of caspase-1 activation” value in series [3] (24 h treatment) is reported as 25 % of the ATP response. Also, in [4], the “caspase-1 activity” value is on record as “activation of caspase-1”.

With `O=S(=O)([O-])CCS.[Na+]` [Mesna, 2-mercaptoethane sulfonate sodium], the “effects on bone marrow, hepatic, renal or CNS function” value in series [10] (doses up to 100 mg/kg) was “no apparent effects on bone marrow, hepatic, renal or CNS function”. The fate in plasma result in series [10] (only a very small portion remaining in circulation) is “rapid oxidation in plasma”.

For the molecule `CC(=O)N[C@@H](CS)C(=O)O` [NAC, N-acetylcysteine], the “concentration sufficient to completely suppress caspase-1 activation in MSU-treated cells” value in series [3] was 500 µM. For the same molecule, the “concentration sufficient to completely suppress caspase-1 activation in CPPD-treated cells” value in series [3] (62.5 μg/mL CPPD 24 h, NAC 1 h before) came to 5 mM.

B1: HMGB-1: high mobility group box 1 protein (ProSci), diabetic DAMP (protein, UniProt P09429 1-215, looked up)
High mobility group protein B1: MGKGDPKKPRGKMSSYAFFVQTCREEHKKKHPDASVNFSEFSKKCSERWKTMSAKEKGKFEDMAKADKARYEREMKTYIPPKGETKKKFKDPNAPKRPPSAFFLFCSEYRPKIKGEHPGLSIGDVAKKLGEMWNNTAADDKQPYEKKAAKLKEKYEKDIAAYRAKGKPDAAKKGVVKAEKSKKKKEEEEDEEDEEDEEEEEDEEDEDEEEDDDDE
Take B1: the “caspase-1 activity” value in series [4] is recorded as “activation of caspase-1”.
